Assay results published in patent publication US10195156B2, “Compounds and compositions for intracellular delivery of agents” (ModernaTX, Inc., priority 2015, dated 2019).
Each block holds one compound with its values, some of them ahead of it.

Key:
[1] = tested on: IP-10; assay: Cytokine production induced by sample formulations: IP-10; type: in vivo; conditions: mice, i.v., 0.5 mpk, 6 hours; for IP-10: in pg/mL (unit assumed)
Summary of the method: (§1)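 Mice received nanoparticle formulations intravenously at 0.5 mpk, with standard MC3 formulation and PBS as controls. Cytokine concentrations were measured 6 hours after dosing.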

[2] = Particle size and polydispersity index of nanoparticle compositions (Zetasizer Nano ZS); type: physicochemical
Summary of the method: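 Particle size and PDI were measured on a Zetasizer Nano ZS with the nanoparticle compositions dispersed in 1×PBS.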

[3] = Encapsulation efficiency of RNA (QUANT-IT RIBOGREEN RNA assay); type: physicochemical
Summary of the method: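 Nanoparticle samples diluted to ~5 μg/mL RNA in TE buffer (pH 7.5), incubated with or without 2% Triton X-100 solution at 37 °C for 15 min, then RiboGreen added. Fluorescence read at ~480/520 nm, blank-subtracted; free RNA % = intact over Triton-disrupted signal.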

[4] = tested on: Luc expression; assay: ApoE dependence of luciferase expression (ApoE knockout vs. wild-type mice); type: in vivo; conditions: 0.5 mpk, 6 h
Excerpt: FIG. 17 is a pair of graphs showing the ApoE dependence of luciferase (“Luc”) expression following administration of a composition containing Luc mRNA and Compound 4 to mice at a dose 0.5 mpk. The expression following administration of a composition containing Luc mRNA and MC3 is presented for comparison. […] The % change in Luc expression in livers of ApoE knockout vs. wild-type mice (i.e., (WT mean expression-KO mean expression)/WT mean expression]*100%) was 91.9% for Compound 4 and 97.5% for MC3. […] The % change in expression in spleens of ApoE knockout vs. wild-type mice was 4.34% for Compound 4 and 72.2% for MC3. Numbers 1-4 refer to the following: 1: Composition containing Compound 4, administered to ApoE knockout mice; 2: Composition containing Compound 4, administered to wild-type mice; 3: Composition containing MC3, administered to ApoE knockout mice; 4: Composition containing MC3, administered to wild-type mice.

[5] = tested on: GFP expression in liver cells; assay: Mouse liver immunohistochemistry (IHC) with GFP mRNA; type: in vivo; conditions: FIG. 11, i.v., 0.5 mpk, 6 h (MC3, CD-1) or 8 h (Compound 4, LDLR knockout)
Protocol: FIG. 11 is a pair of images comparing the results of a mouse liver immunohistochemistry (IHC) using mRNA expressing green fluorescent protein (GFP) after administration of nanoparticle compositions containing Compound 4 and MC3.
FIG. 16 is a graph showing GFP levels in the livers of LDLR knockout mice at 30 min to 24 h after intravenous administration of an eGFP RNA in a lipid composition containing Compound 4. The liver GFP levels were determined via IHC. The square markers represent the number of GFP positive cells following administration of a dose of 0.1 mpk of the composition. The circular markers represent the number of GFP positive cells following administration of a dose of 0.5 mpk of the composition.

[6] = Lipid clearance: % dose remaining in mouse liver 6 h and 24 h after administration of nanoparticle compositions; type: in vivo, CD-1 mice
Excerpt: (§2) In contrast, hEPO expression in rats induced by administration of a nanoparticle composition including a compound according to one of formulae (I), (Ia1)-(Ia6), (Ib), (II), (IIa), (III), and (IIIa) was substantially […] than that measured for MC3. […] Table 7c and 7d show additional protein expressions and clearance data from compositions with various compounds disclosed herein as compared to with MC3.

[7] = tested on: IL-6; assay: Cytokine production induced by sample formulations: IL-6; type: in vivo; conditions: mice, i.v., 0.5 mpk, 6 hours; for IL-6: in pg/mL (unit assumed)
Summary of the method: as §1

[8] = tested on: Luc expression; assay: Luc expression in CD-1 mice (AUC relative to MC3); type: in vivo; conditions: Table 7c
Protocol: FIG. 15 is a graph summarizing luciferase expression levels at 6 h after administration of nanoparticle compositions containing compounds of the disclosure to CD-1 mice at a dose of 0.5 mpk. Total light flux values were acquired via body luminescent imaging (BLI) 6 h after administration. In this Figure, the numbers 1-7 and 10 refer to the compositions containing Compounds 4-10 and MC3 respectively.
as §2

[9] = pKa of nanoparticle compositions; type: physicochemical
[10] = Table 1, rows without footnote mark
[11] = Table 1, rows without footnote mark (lipid:DOPE:cholesterol:PEG-DMG 40:20:38.5:1.5, Luc mRNA; MC3 standard formulation)
[12] = Table 5, hEPO mRNA, 50:10:38.5:1.5 Lipid:DSPC:Chol:PEG-DMG
[13] = Table 20-1, rows without footnote mark
[14] = Table 5, hEPO mRNA, 40:20:38.5:1.5 Lipid:DOPE:Chol:PEG-DMG

- IP-10 ([1]; Table 4): 438
- IP-10 ([1]; Table 17-4): 500
- IP-10 ([1]; Table 19-4): 323.9
- IP-10 ([1]; Table 20-4, formula (20-I)): 499.1
- IP-10 induction, rank or comparison with IL-6 (in words) [1]: highest IL-6 and IP-10 levels
- PDI [2, 10]: 0.117
- Size (nm) [2, 11]: 86.2 nm
- PDI ([2]; Table 1b): 0.17
- Size (nm) ([2]; Table 1b): 74.7 nm
- PDI [2, 12]: 0.11
- Size (nm) [2, 12]: 76.5 nm
- PDI ([2]; Table 17-1): 0.138
- Size (nm) ([2]; Table 17-1): 83.8 nm
- PDI ([2]; Table 19-1): 0.122
- Size (nm) ([2]; Table 19-1): 83.3 nm
- PDI [2, 13]: 0.117
- Size (nm) [2, 13]: 84.0 nm
- PDI ([2]; Table 21-1): 0.1191
- Size (nm) ([2]; Table 21-1): 91.4 nm
- EE (%) [3, 10]: 97.70%
- EE (%) ([3]; Table 1b): 97.3%
- EE (%) [3, 12]: 97.37%
- EE (%) ([3]; Table 17-1): 98.0%
- EE (%) ([3]; Table 19-1): 97.6%
- EE (%) [3, 13]: 97.4%
- EE (%) ([3]; Table 21-1): 98.1%
- % Dose remaining 6 h CD-1 mice ([6]; 6 h, CD-1 mice): 88%
- % Dose remaining 24 h CD-1 mice ([6]; 24 h, CD-1 mice): 55%
- % Dose Remaining 6 hr ([6]; Table 7c, 6 hr): 55.70%
- % Dose Remaining 24 hr ([6]; Table 7c, 24 hr): 55.43%
- % dose remaining Mouse liver (24 h) ([6]; mouse liver, 24 h): 55%
- IL-6 ([7]; Table 4): 92
- IL-6 ([7]; Table 17-4): 107
- IL-6 ([7]; Table 19-4): 65.7
- IL-6 ([7]; Table 20-4, formula (20-I)): 119.5
- IL-6 induction, rank within the named table (in words) [7]: highest IL-6 and IP-10 levels
Compound: CCCCCC=CCC=CCCCCCCCCC(CCCCCCCCC=CCC=CCCCCC)OC(=O)CCCN(C)C (centres unmarked) [MC3, heptatriaconta-6,9,28,31-tetraen-19-yl 4-(dimethylamino)butanoate, reference compound]
- % change in Luc expression in livers of ApoE knockout vs. wild-type mice ([4]; FIG. 17 Graph A, liver): 97.5%
- % change in expression in spleens of ApoE knockout vs. wild-type mice ([4]; FIG. 17 Graph B, spleen): 72.2%
- GFP protein expression in liver cell types (in words) [5]: observed in both hepatocytes and Kupffer cells
- AUC (p/s*h) [8]: 1.42E+11 p/s*h

- IP-10 ([1]; Table 4): 2382
- PDI [2, 10]: 0.096
- Size (nm) [2, 11]: 87.8 nm
- PDI [2, 14]: 0.13
- Size (nm) [2, 14]: 87.5 nm
- EE (%) [3, 10]: 96.9%
- EE (%) [3, 14]: 93.79%
- IL-6 ([7]; Table 4): 31
- pKa [9, 10]: 5.44
- pKa [9, 14]: 5.444
Compound: CCCCCCCCCCCCN(CCCCCCCCCCCC)CCN(CCCCCCCCCCCC)CCN1CCN(CCN(CCCCCCCCCCCC)CCCCCC(=O)OCCCCC)CC1 [Compound 12, Pentyl 6-((2-(4-(2-((2-(didodecylamino)ethyl)(dodecyl)amino)ethyl)piperazin-1-yl)ethyl)(dodecyl)amino)hexanoate]
